Test system: NOMO1
Assay: cell viability relative to DMSO control; higher = less cytotoxic
Settings: 48 h
Summary of the method: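 Viability values are per-plate percentages of DMSO wells, with background from cell-free wells. Library compounds in DMSO were pin-dosed, in an 11-point threefold series from 47 μM to 0.79 nM, onto NOMO1 or SEM (500 cells/well) or P12-Ichikawa (1000 cells/well) leukemia cells in 1536-well plates (5 μl). Those cells had been adapted for at least four passages in each medium, and CellTiter-Glo One luminescence was read after 48 h at 37°C.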

[1] = HPLM + 10% dialyzed FBS, 0.000781 µM
[2] = HPLM + 10% dialyzed FBS, 0.00234 µM
[3] = HPLM + 10% dialyzed FBS, 0.00702 µM
[4] = HPLM + 10% dialyzed FBS, 0.0211 µM
[5] = HPLM + 10% dialyzed FBS, 0.0632 µM
[6] = HPLM + 10% dialyzed FBS, 0.19 µM
[7] = HPLM + 10% dialyzed FBS, 0.569 µM
[8] = HPLM + 10% dialyzed FBS, 1.71 µM
[9] = HPLM + 10% dialyzed FBS, 5.12 µM
[10] = HPLM + 10% dialyzed FBS, 15.4 µM
[11] = HPLM + 10% dialyzed FBS, 46.1 µM
[12] = RPMI 5 mM glucose + 10% FBS, 0.000781 µM
[13] = RPMI 5 mM glucose + 10% FBS, 0.00234 µM
[14] = RPMI 5 mM glucose + 10% FBS, 0.00702 µM
[15] = RPMI 5 mM glucose + 10% FBS, 0.0211 µM
[16] = RPMI 5 mM glucose + 10% FBS, 0.0632 µM
[17] = RPMI 5 mM glucose + 10% FBS, 0.19 µM
[18] = RPMI 5 mM glucose + 10% FBS, 0.569 µM
[19] = RPMI 5 mM glucose + 10% FBS, 1.71 µM
[20] = RPMI 5 mM glucose + 10% FBS, 5.12 µM
[21] = RPMI 5 mM glucose + 10% FBS, 15.4 µM
[22] = RPMI 5 mM glucose + 10% FBS, 46.1 µM
[23] = RPMI 5 mM glucose + 10% dialyzed FBS, 0.000781 µM
[24] = RPMI 5 mM glucose + 10% dialyzed FBS, 0.00234 µM
[25] = RPMI 5 mM glucose + 10% dialyzed FBS, 0.00702 µM
[26] = RPMI 5 mM glucose + 10% dialyzed FBS, 0.0211 µM
[27] = RPMI 5 mM glucose + 10% dialyzed FBS, 0.0632 µM
[28] = RPMI 5 mM glucose + 10% dialyzed FBS, 0.19 µM
[29] = RPMI 5 mM glucose + 10% dialyzed FBS, 0.569 µM
[30] = RPMI 5 mM glucose + 10% dialyzed FBS, 1.71 µM
[31] = RPMI 5 mM glucose + 10% dialyzed FBS, 5.12 µM
[32] = RPMI 5 mM glucose + 10% dialyzed FBS, 15.4 µM
[33] = RPMI 5 mM glucose + 10% dialyzed FBS, 46.1 µM

| Structure (SMILES) | cell viability [1] [%] | cell viability [2] [%] | cell viability [3] [%] | cell viability [4] [%] | cell viability [5] [%] | cell viability [6] [%] | cell viability [7] [%] | cell viability [8] [%] | cell viability [9] [%] | cell viability [10] [%] | cell viability [11] [%] | cell viability [12] [%] | cell viability [13] [%] | cell viability [14] [%] | cell viability [15] [%] | cell viability [16] [%] | cell viability [17] [%] | cell viability [18] [%] | cell viability [19] [%] | cell viability [20] [%] | cell viability [21] [%] | cell viability [22] [%] | cell viability [23] [%] | cell viability [24] [%] | cell viability [25] [%] | cell viability [26] [%] | cell viability [27] [%] | cell viability [28] [%] | cell viability [29] [%] | cell viability [30] [%] | cell viability [31] [%] | cell viability [32] [%] | cell viability [33] [%] |
| --- | --- | --- | --- | --- | --- | --- | --- | --- | --- | --- | --- | --- | --- | --- | --- | --- | --- | --- | --- | --- | --- | --- | --- | --- | --- | --- | --- | --- | --- | --- | --- | --- | --- |
| Oc1cc(-c2nc(-c3ccccc3)[nH]c2-c2ccncc2)ccc1Cl | 111 | 119 | 119 | 112 | 123 | 120 | 108 | 84.2 | 78.8 | 49.2 | 21.4 | 106 | 104 | 107 | 107 | 121 | 103 | 109 | 102 | 107 | 87.1 | 32.2 | 101 | 107 | 121 | 107 | 123 | 109 | 104 | 92.1 | 81.3 | 74.8 | 32 |
| C[S+](=O)([O-])Oc1ccc2c(NC(N)=O)c(C(=O)c3ccc(Cl)cc3Cl)oc2c1 | 115 | 103 | 114 | 113 | 140 | 139 | 127 | 128 | 105 | 100 | 42.7 | 105 | 111 | 104 | 115 | 120 | 119 | 125 | 117 | 115 | 106 | 50.3 | 127 | 111 | 122 | 126 | 119 | 116 | 115 | 128 | 135 | 105 | 76.8 |
| COc1ccc(F)c(F)c1C(=O)c1cnc(NC2CCN([S+](C)(=O)[O-])CC2)nc1N | 106 | 135 | 123 | 117 | 119 | 124 | 118 | 93.6 | 45.6 | 7.59 | 3.32 | 104 | 118 | 103 | 102 | 109 | 109 | 100 | 98.9 | 46.3 | 15.1 | 3.38 | 105 | 101 | 102 | 106 | 107 | 102 | 83.8 | 90 | 54.1 | 15 | 2.57 |
| CC(=O)SC[C@@H](C)C(=O)N1CCC[C@H]1C(=O)N[C@@H](Cc1ccccc1)C(=O)O | 117 | 119 | 95.1 | 105 | 115 | 114 | 97.2 | 101 | 111 | 110 | 89.3 | 93.5 | 106 | 105 | 88.7 | 94.1 | 100 | 94.4 | 94.5 | 85.3 | 82.5 | 92.1 | 103 | 99.5 | 107 | 106 | 112 | 89.5 | 106 | 97.3 | 103 | 106 | 91.5 |
| CCCCc1ccc2[nH]c(NC(=O)OC)nc2c1 | 108 | 103 | 106 | 111 | 95.3 | 37.6 | 31.9 | 33.3 | 42.8 | 37.3 | 47.7 | 102 | 109 | 120 | 110 | 99.8 | 34.2 | 26.1 | 24.4 | 25.8 | 23.8 | 24.2 | 94.2 | 96.6 | 101 | 95.3 | 101 | 37.1 | 29.1 | 27.4 | 31.6 | 34.1 | 31.8 |
| c1cc(-c2cnn3cc(-c4ccc(OCCN5CCCCC5)cc4)cnc23)ccn1 | 95.4 | 83.7 | 101 | 87.5 | 83.1 | 88.8 | 88.6 | 67.2 | 76.1 | 72.8 | 30.5 | 83.1 | 88.8 | 87.4 | 81.2 | 83.9 | 83.4 | 80.6 | 80.9 | 80.4 | 85.9 | 80.2 | 80.1 | 84.5 | 82.6 | 86.9 | 89.5 | 86.5 | 79.6 | 84 | 78.3 | 80.9 | 74 |
| COc1ccc(CCC(=O)c2c(O)cc(O[C@@H]3O[C@H](CO)[C@@H](O)[C@H](O)[C@H]3O[C@@H]3O[C@@H](C)[C@H](O)[C@@H](O)[C@H]3O)cc2O)cc1O | 105 | 138 | 124 | 122 | 120 | 124 | 117 | 102 | 91.2 | 36.1 | 42.7 | 118 | 140 | 114 | 123 | 119 | 119 | 111 | 107 | 114 | 45.2 | 20.7 | 118 | 121 | 119 | 119 | 135 | 116 | 117 | 113 | 110 | 40.2 | 34.4 |
| CC(C)C1CCC(C(=O)N[C@H](Cc2ccccc2)C(=O)O)CC1 (stereo partly drawn) | 87.3 | 100 | 75.4 | 90.4 | 89.9 | 84.5 | 81.4 | 88.6 | 78 | 76.4 | 91.4 | 93.5 | 88.5 | 91.8 | 89.7 | 92.2 | 91.6 | 85.1 | 80.7 | 84.2 | 81.4 | 84.6 | 92.2 | 96.9 | 98.9 | 94.4 | 92 | 94.8 | 100 | 82.6 | 101 | 82.8 | 92.3 |
| CO[C@@H](C(=O)N1Cc2[nH]nc(NC(=O)c3ccc(N4CCN(C)CC4)cc3)c2C1)c1ccccc1 | 88 | 93.2 | 102 | 94.2 | 72.2 | 62.2 | 58.6 | 53.3 | 54.1 | 66.8 | 71.7 | 80.4 | 79.4 | 79.7 | 83.2 | 81.5 | 64.4 | 51.5 | 50.9 | 55.8 | 53.4 | 56.3 | 83.7 | 87.2 | 88.5 | 88.7 | 71.9 | 52.5 | 59.3 | 47.4 | 48.9 | 55.3 | 54.3 |
| O=C(O)c1cc(O)c2c(c1)C(=O)c1cccc(O)c1C2=O | 113 | 111 | 127 | 107 | 127 | 117 | 127 | 125 | 113 | 104 | 94.3 | 115 | 120 | 116 | 121 | 114 | 101 | 103 | 110 | 107 | 99.5 | 104 | 110 | 119 | 102 | 121 | 112 | 107 | 112 | 119 | 119 | 95.4 | 96.2 |
| CCC(CCCC)COC(=O)C(\C#N)=C(\c1ccccc1)c2ccccc2 (stereo not drawn) | 76.5 | 102 | 84 | 117 | 101 | 101 | 98.5 | 92.8 | 107 | 98.5 | 107 | 92.6 | 91.8 | 86.2 | 101 | 101 | 93 | 92.5 | 104 | 97.8 | 109 | 105 | 87.4 | 85.8 | 84.4 | 94.6 | 94 | 91.7 | 90.4 | 91.5 | 89.1 | 87.2 | 96.2 |
| CN(C)c1nc(Cc2ccc(NC(=O)c3ccc(C(F)(F)F)cc3)cc2)nc(N(C)C)c1CC(=O)O | 120 | 101 | 107 | 94.5 | 119 | 112 | 103 | 96.2 | 107 | 108 | 91.1 | 93 | 88.6 | 87.1 | 82.7 | 99.4 | 89.4 | 95.7 | 96.6 | 86 | 91.8 | 85.5 | 96.1 | 95.2 | 96.2 | 94.1 | 91.6 | 97.8 | 98 | 99.8 | 96.9 | 86.9 | 86.8 |
| Cc1ccc([C@@H]2O[C@H](CO)[C@@H](O)[C@H](O)[C@H]2O)cc1Cc1ccc(-c2ccc(F)cc2)s1 | 122 | 138 | 122 | 129 | 127 | 129 | 119 | 127 | 142 | 122 | 85.3 |  |  |  |  |  |  |  |  |  |  |  |  |  |  |  |  |  |  |  |  |  |  |
| CO[C@H]1CCC(O[C@H]2C[C@H]([C@]3(C)CC[C@]4(C[C@H](O)[C@@H](C)[C@@H]([C@@H](C)/C=C(\C)C(=O)[C@H](C)C[C@H](C)C(=O)[O-])O4)O3)O[C@]3(O[C@@H]([C@H]4O[C@@](O)(CO)[C@H](C)C[C@@H]4C)C[C@@H]3C)[C@@H]2C)O[C@@H]1C (stereo partly drawn) | 112 | 124 | 136 | 109 | 134 | 101 | 118 | 88.8 | 84.4 | 63.7 | 55.1 | 123 | 121 | 113 | 122 | 145 | 121 | 124 | 118 | 111 | 97.6 | 67.7 | 112 | 122 | 133 | 118 | 111 | 114 | 132 | 106 | 48.9 | 78.2 | 64.2 |
| C[C@H](CCC(=O)O)[C@H]1CC[C@H]2[C@@H]3[C@H](O)C[C@@H]4C[C@H](O)CC[C@]4(C)[C@H]3CC[C@]12C | 93.9 | 93.7 | 108 | 99.5 | 106 | 98.4 | 102 | 99 | 101 | 120 | 114 | 85 | 88.1 | 92.9 | 88.6 | 101 | 87.1 | 102 | 91.2 | 93.5 | 90.3 | 83 | 73 | 80.4 | 82.5 | 84.9 | 88.9 | 88.8 | 83 | 79.8 | 89.2 | 99.2 | 92.4 |
